For data set [1], the system named is chondrocytes. Briefly: Immunohistochemical detection of COL2A1 in chondrocytes. Type of data set: cell-based, New Zealand white rabbit. Particulars: 1 μM, 5 days. Here is the method: The articular cartilage of New Zealand white rabbit aged 2 months old was cut under sterile conditions, and cut into a size of 1 mm. The articular cartilage was digested at 37° C. according to the following procedure: (1) digested with 2 mg/ml hyaluronidase for 45 minutes; (2) digested with 2 mg/ml trypsin for 45 minutes; and (3) digested with 4 mg/ml type II collagenase for 3 hours, washed, and then centrifuged (1500 r/min) for 5 minutes; and the precipitate was cultured in a DMEM medium containing 15% fetal bovine serum. Immunohistochemical Detection of COL2A1 Chondrocytes were inoculated at 3.5×10^5 cells/ml in a 6-well culture plate with coverslips, and different concentrations of BM23 peptides were added; PBS was set as a negative control group, and IGF-1 was set as a positive control group. The 6-well culture plate was placed in a 5% CO2 saturated water-vapor carbon dioxide incubator for a culture at 37° C. for 5 days. Immunohistochemical staining was performed as in Embodiment 3.

The subject of data set [2] is chondrocytes. Briefly: Proliferation of chondrocytes by MTS assay. Format: cell-based, New Zealand white rabbit. Particulars: 5 days of treatment, OD 570 nm, BM23 peptide 0.1, 0.3, 1 μM, IGF-1 1 μM. On the procedure: The articular cartilage of New Zealand white rabbit aged 2 months old was cut under sterile conditions, and cut into a size of 1 mm. The articular cartilage was digested at 37° C. according to the following procedure: (1) digested with 2 mg/ml hyaluronidase for 45 minutes; (2) digested with 2 mg/ml trypsin for 45 minutes; and (3) digested with 4 mg/ml type II collagenase for 3 hours, washed, and then centrifuged (1500 r/min) for 5 minutes; and the precipitate was cultured in a DMEM medium containing 15% fetal bovine serum. […] Detection of the Proliferation of Chondrocytes by MTS Assay Chondrocytes were inoculated in a 96-well plate at 2×10^4 cells/well, and different concentrations of BM23 peptides (0.1 μM, 0.3 μM, and 1 μM) were added; PBS was set as a negative control group, and IGF-1 (1 μM) was set as a positive control group. The 96-well plate was placed in a 5% CO2 saturated water-vapor carbon dioxide incubator for a culture at 37° C. for 5 days. 20 μl of MTS mixture was added to each well, and the culture was continued for 3-4 hours for coloration. Before testing, the culture plate was shaken for 10 seconds to uniformly mix colors. The optical density (OD) of each well was measured at a wavelength of 570 nm on an enzyme-linked immunometric meter.
(In general: Tetrazolium dyes change colour on reduction, which living cells bring about.)

The test system of a further data set is mesenchymal stem cells. The data set is described as follows: Immunohistochemical detection of COL2A1 in mesenchymal stem cells. Type of data set: cell-based, rat. Particulars: 1 μM. Here is the method:
(§1) The cells were re-suspended in a complete chondrogenic medium (purchased from Guangzhou Cyagen Biosicences Inc., Item No.: RASMX-90011) containing different concentrations of BM23 peptides (0.1 μM, 0.3 μM, and 1 μM), so that the concentration of BMSCs was 5.0×10^5 cells per ml. PBS was used as a negative control, and 1 μM human insulin growth factor (IGF-1, purchased from Beijing Yiqiao Shenzhou Biotechnology Co., Ltd.) was used as a positive control.
The treated BMSCs were incubated at 37° C. under 5% CO2 saturated humidity. The medium was changed every 2-3 days, and 0.5 mL of fresh complete chondrogenic medium was added to each tube.
Generally, samples can be collected after 28 days of continuous induction; and cartilage balls can be subjected to formalin fixation, paraffin embedding, sectioning and alcian blue staining.
Paraffin Embedding of Tissues:
The specimens were fixed with 4% paraformaldehyde for 24-36 hours.
The specimens were taken out and washed to remove the fixative, and a material with a suitable size (about 0.2 cm in thickness) was cut for embedding.
The specimens were respectively treated once with 70%, 80%, 90% and 95% ethanol, and 60 minutes are for each treatment. The specimens were treated twice with 100% ethanol, and 50 minutes are for each time.
The specimens were treated once with ½xylene-½ absolute ethanol for 15 minutes. […]

The next data set is described as follows: in vivo. Also noted: species or system New Zealand rabbits. Particulars: New Zealand, rabbit, iv, 0.5 mg/kg.
The test system of data set [3] is rat bone marrow mesenchymal stem cells (BMSCs). The data set is described as follows: Chondrogenic induction of BMSCs, quantitative PCR of COL2A1 and ACAN mRNA. Type of data set: cell-based. Particulars: rat BMSCs in chondrogenic medium. Here is the method:
Three SD rats aged 8 weeks were sacrificed by a dislocation method and disinfected with 70% ethanol for 5 minutes. The abdominal wall layers of the three SD rats were then cut with scissors, an incision of each SD rat was pulled to a femur, and muscles on the femur were carefully separated.
A middle of the femur was cut off, and a bone marrow cavity was repeatedly washed by a low-sugar DMEM medium (containing 1 mL/L of heparin) sucked with a syringe to flush out bone marrow.
The bone marrow was repeatedly washed with the syringe, and prepared into a single cell suspension by successively passing through needle No. 7 and needle No. 4.
The single cell suspension was centrifuged (1500 r/min, 10 min), and a supernatant was discarded; DMEM-F12 complete medium containing 10% FBS was added, and then an inoculation was performed in a culture flask at a density of 10^7 cells/mL, and the culture flask was placed in an incubator having 5% CO2 at 37° C. for a culture.
The cells were purified by a differential adherent culture. The culture solution was changed 48 hours after the inoculation, and thereafter, the culture solution was changed every 3 days to remove non-adherent hematopoietic cells.
After the cells grew to 80%-90%, a passage was performed. The culture solution was removed, and the cells were washed with PBS to remove residual serum; and the PBS was removed.
A BMSCs digestive juice (containing 0.25% trypsin and 0.02% EDTA solution) was added for a slight shaking until the BMSCs digestive juice just covers the bottom of the culture flask; and a digestion time was about 5 minutes. Then, the passage was carried out.
The cells were transferred to a centrifuge tube, centrifuged at 1500 r/min for 10 minutes; a supernatant was removed; and a complete culture medium of mesenchymal stem cells was added for re-suspending the cells.
The BM23 peptide was dissolved in phosphate buffered saline (PBS).
as §1
The treated BMSCs were incubated at 37° C. under 5% CO2 saturated humidity. The medium was changed every 2-3 days, and 0.5 mL of fresh complete chondrogenic medium was added to each tube. […]
Quantitative PCR Detection […]
Quantitative PCR was performed using cDNA as a template and the following primers: • (1) rat COL2A1-F1: 5′ […] […]

Data set [4] concerns knee articular cartilage defect. The data set is described as follows: Rabbit cartilage repair model. Type of data set: in vivo, New Zealand rabbits. Particulars: for general observation score: 90 days after first administration, 0-4 point scale; for histopathological scores of articular cartilage: 90 days, ICRS pathological scoring, grade 0-6, six rabbits. Here is the method: Animals: New Zealand rabbits, 2 months old, half male and half female
Construction of models: New Zealand rabbits were anesthetized with 6% pentobarbital sodium (0.7 mL/kg) via marginal ear veins. After anesthesia, a longitudinal incision having a length of about 3 cm was made on the medial side of the knee joint of the left hind leg; the skin, subcutaneous tissue and joint capsule were cut successively to maintain the integrity of the patellar ligament; and the patella was turned outward to expose the femoral condyle. When the knee joint flexes 90°, an articular cartilage defect with a diameter of 4.2 mm and a depth of 3 mm was drilled in the femur and the middle of lateral intercondylar articular surfaces corresponding to the patella by using a drill bit with a diameter of 4.2 mm (according to visible bleeding on subchondral bone). The defect was washed with normal saline without any other treatment. […] After the patella is reset, the muscle and skin incisions are sequentially sutured. After the operation, immediately, the animals were intramuscularly injected with penicillin sodium once a day for 3 consecutive days to prevent infection.
Administration: the New Zealand rabbits with knee articular cartilage defects were divided into four groups: negative control group, low-dose group (1 mg/rabbit), medium-dose group (3 mg/rabbit) and high-dose group (10 mg/rabbit), 12 rabbits in each group, half male and half female in each group. On the 6th day after constructing the models, each group of rabbits was administered intra-articularly. Namely, 1 mg/rabbit, 3 mg/rabbit and 10 mg/rabbit were administered to the test rabbits, respectively, and the administration volume was 0.2 ml.
Sacrifice and observation: at 90 days after the first administration, 6 rabbits (half male and half female) were selected from each group and sacrificed, and the repair situation of the knee articular cartilage in each rabbit was observed by dissection.
(1) General observation: during necropsy, the articular cavity was opened, the patella articular surface was exposed, and the repair of the filling edge of the defect, the flatness of the cartilage surface, the color of the new cartilage, etc., were observed.
Subsequently, scoring was performed according to the following criteria:
0 point: the articular surface is smooth and the color is normal;
1 point: the articular surface is rough, with small fissures and dark color;
2 points: the cartilage defect has reached the middle layer of cartilage;
3 points: the articular surface ulcer is formed, and the cartilage defect has reached the deep layer of cartilage; and
4 points: the cartilage is exfoliated, and subchondral bones are exposed.
(2) Histological pathological observation: observation was performed under light microscope, and scoring was performed according to the ICRS pathological scoring standard:
Grade 0: the cartilage surface is flat and the cartilage is intact;
Grade 1: the superficial fibers are formed in the cartilage surface and are uneven;
Grade 2: the cartilage surface is discontinuous, accompanied by cell proliferation; and metachromatic materials are increased or decreased in the II-III layers;
Grade 3: cartilage rhagadia has reached the III layer or erosion occurs;
Grade 4: the erosion of the cartilage is aggravated, and the articular cartilage is damaged;
Grade 5: the articular cartilage is exfoliated; and
Grade 6: the joint is deformed.
After the rabbits were sacrificed by anesthesia and exsanguination, the articular cartilage tissue was exfoliated and fixed with 10% neutral formalin, followed by dehydration, conventional paraffin embedding, sectioning, HE staining and mounting, and detection was performed by light microscopy.

[5] abbreviates: high-dose group 10 mg/rabbit intra-articular.
The mark [6] stands for this setting: low-dose group 1 mg/rabbit intra-articular.
[7] abbreviates: medium-dose group 3 mg/rabbit intra-articular.

Peptide text beside a SMILES is read from it.

Method for in vivo: LC/MSMS methodology was established, Finnigan TSQ Discovery Max LC/MS was equipped with Surveyor HPLC system. The detection limit was 1-1000 ng/ml, and the recovery rate was over 80%. Six New Zealand rabbits were randomly divided into two groups (three rabbits in each group). […] The blood concentration was measured by LC/MSMS method, 100 μl of blood plasma was taken, 500 μl of a mixed solvent containing IS 2000 ng/ml of acetonitrile and methanol solution at a ratio of 70:30 was added, shaken, and centrifuged at 12000 rpm for 10 minutes. 20 μl of supernatant was injected for LC/MSMS analysis. The main pharmacokinetic parameters were calculated by using 3P97 pharmacokinetic software.

Take `CC[C@H](C)[C@H](NC(=O)[C@H](CCCNC(=N)N)NC(=O)[C@H](Cc1c[nH]cn1)NC(=O)[C@H](CCCCNC(=N)N)NC(=O)[C@H](CC(N)=O)NC(=O)[C@H](CCCNC(=N)N)NC(=O)[C@H](Cc1c[nH]cn1)NC(=O)[C@H](CCCCN)NC(=O)[C@H](CC(C)C)NC(=O)[C@H](N)CCC(N)=O)C(=O)N[C@@H](CCCCN)C(=O)N[C@H](C(=O)NCC(=O)N[C@@H](CO)C(=O)N[C@H](C(=O)N[C@@H](CC(N)=O)C(=O)N[C@@H](Cc1c[nH]cn1)C(=O)NCC(=O)N[C@@H](CC(C)C)C(=O)N[C@H](C(=O)N[C@@H](CCC(N)=O)C(=O)N[C@@H](CO)C(=O)N[C@@H](CC(C)C)C(N)=O)C(C)C)[C@@H](C)O)[C@@H](C)O` [BM23 peptide] (HELM PEPTIDE1{[dQ].L.K.H.R.N.[N=C(N)NCCCC[C@H](N[*:1])C(=O)[*:2]].H.R.I.K.T.G.S.T.N.H.G.L.V.Q.S.L.[am]}$$$$V2.0; N-terminus assumed): the “expression level of COL2A1 protein (immunohistochemical staining) vs PBS treatment group” value in the data set with chondrocytes [1] and with mesenchymal stem cells was “significantly increased” each time. Besides, in the data set with chondrocytes [2], the “proliferation of chondrocytes compared with the PBS group” value is given as “significantly promoted”. In “in vivo”, this compound registered a half-life of 2.05 ± 0.633 h. Also, the “mRNA expression level of ACAN compared with PBS treatment” value is “no significant effect” in data set [3] (0.1 μM), “significantly different” in data set [3] (0.3 μM) and “significantly different” in data set [3] (1 μM). The “mRNA expression level of COL2A1 compared with PBS treatment” value in data set [3] (0.1 μM) is “no significant effect”. Besides, the general observation score amounted to 2.1 points in data set [4] (setting [5]), 3.7 points in data set [4] (setting [6]) and 3.0 points in data set [4] (setting [7]). Besides, the “histopathological scores of articular cartilage” value in data set [4] (setting [5]) came out at 2.1 points; in data set [4] (setting [6]), 3.7 points; in data set [4] (setting [7]) it was 3.0 points.
On to “positive control: human insulin growth factor (IGF-1), used at 1 μM as positive control”, for which the “proliferation of chondrocytes compared with the PBS group” value with chondrocytes [2] is listed as “significantly promoted”.

Usually half-life stands for the time needed for the level to fall by half in the phase considered.

(Values after patent US10525105B2, “Peptide for repairing cartilage and treating osteoarthritis” (Guangzhou Link Health Pharma Co., Ltd., priority 2016, dated 2020).)
